Measurements taken from US5747536A, “Pharmaceutical composition comprising L-carnitine or derivative thereof and trihydroxy or tetrahydroxystilbene” (Sigma-Tau Industrie Farmaceutiche Riunite S.p.A., priority 1995, dated 1998).

Columns and labels:
[1] = test system: platelet-rich plasma (PRP); assay: Platelet aggregation induced by collagen in platelet-rich plasma, photometric (Born); format: cell-based, human (volunteers); settings: collagen 2.5 ng/ml, 10 minutes of incubation
Method: Platelet-rich plasma (PRP) was obtained from the blood of volunteers by centrifuging the plasma at 145 x g for 5 min at 22° C. The number of platelets was determined using a CA 580A (Delcon) Platelet Counter. The number of platelets was brought down to a fixed value of […] by adding platelet-poor plasma (PPP). PPP was obtained by centrifuging blood at 1600 x g for 10 min at 22° C.
Platelet aggregation was determined photometrically (Born G.V.R., Nature 194, 927, 1962) using an Elvi 840 aggregometer in plastic test tubes under continual stirring at 1000 rpm. The maximum light transmission (100%) was measured with PPP readings, whereas 0% transmission was measured with PRP readings.
The degree of aggregation of PRP induced by the aggregating agent (collagen at 2.5 to 5 ng/ml) was calculated as a percentage of maximum transmission of light obtained with PPP using […] PRP samples.
Aggregation was measured in basal conditions and after 10 minutes of incubation with L-carnitine, resveratrol, grape extract, and combinations of these preparations.

[2] = test system: atherosclerotic vascular lesions (aorta); assay: Experimental atherosclerosis induced by atherogenic diet (Malinow method); format: in vivo; settings: atherogenic diet for 6 consecutive weeks; male Wistar rats
cyclo-oxygeNases = settings: Kimura et al. 1985; cited from earlier work
lipo-oxygenases = settings: Kimura et al. 1985; cited from earlier work
[3] = Kimura et al. 1983; cited from earlier work
[4] = test system: platelet aggregation induced by collagen or ADP; settings: Fitzpatrick et al. 1993; cited from earlier work
formation of nitroxides = settings: Fitzpatrick et al. 1993; cited from earlier work
[5] = test system: production of thromboxanes and leukotrienes; synthesis of eicosanoids; settings: cited from earlier work

SMILES | effect on platelet aggregation (in words) [1] | atherosclerotic vascular lesions (in words) [2] | IC50 ([1]; Homo sapiens, Platelet, 10 min, read-out: ED50, inhibition of the platelet aggregation induced by collagen) [ng/mL] | inhibition of cyclo-oxygenases (in words) (cyclo-oxygeNases) | inhibition of lipo-oxygenases (in words) (lipo-oxygenases) | antihyperoxidative ability (in words) [3] | inhibition of platelet aggregation induced by collagen or ADP (in words) [4] | formation of nitroxides with a vasodilatory action (in words) (formation of nitroxides) | production of thromboxanes and leukotrienes (in words) ([5]; Kimura et al. 1985) | synthesis of eicosanoids (in words) ([5]; background statement)
C[N+](C)(C)C[C@H](O)CC(=O)[O-] [carnitine, L-carnitine] | no significant change | reduced | – | – | – | – | – | – | – | –
Oc1ccc(C=Cc2cc(O)cc(O)c2)cc1 [resveratrol, 3,4',5-trihydroxystilbene] | – | reduced | 3.5 | inhibit | inhibit | antihyperoxidative ability | inhibiting platelet aggregation induced by collagen or ADP | promoting the formation of nitroxides with a vasodilatory action | reduction in the production of thromboxanes and leukotrienes | ability to modulate the synthesis of eicosanoids
